Results published in EPA's CvTdb concentration-time database.

Assays:
Rat [1] = test: concentration in plasma after dosing; conditions: dosed: Potassium Perfluorobutane Sulfonate, 4 mg/kg, oral, Male, Harlan Sprague Dawley
Rat [2] = test: concentration in plasma after dosing; conditions: 1.5 h; dosed: Potassium Perfluorobutane Sulfonate; 20 mg/kg; oral; Male; Harlan Sprague Dawley
Rat [3] = test: concentration in plasma after dosing; conditions: 1 h; dosed: Potassium Perfluorobutane Sulfonate; 4 mg/kg; iv; Female; Harlan Sprague-Dawley
Rat [4] = test: concentration in brain after dosing; conditions: 3 h; dosed: Potassium Perfluorobutane Sulfonate; 20 mg/kg; oral; Male; Harlan Sprague Dawley
Rat [5] = test: concentration in plasma after dosing; conditions: dosed: Potassium Perfluorobutane Sulfonate, 20 mg/kg, oral, Male, Harlan Sprague Dawley
Rat [6] = test: concentration in kidney after dosing; conditions: 1 h; dosed: Potassium Perfluorobutane Sulfonate; 20 mg/kg; oral; Female; Harlan Sprague Dawley
Rat [7] = test: concentration in plasma after dosing; conditions: dosed: Potassium Perfluorobutane Sulfonate, 4 mg/kg, iv, Male, F344
Rat [8] = test: concentration in plasma after dosing; conditions: dosed: 2-Hydroxy-4-methoxybenzophenone, 500 mg/kg, oral, Female, F344
Mouse = test: concentration in plasma after dosing; conditions: 10 min; dosed: 2-Hydroxy-4-methoxybenzophenone; 250 mg/kg; oral; Male; B6C3F1
Rat [9] = test: concentration in plasma after dosing; conditions: dosed: 2-Hydroxy-4-methoxybenzophenone, 100 mg/kg, oral, Female, F344
Rat [10] = test: concentration in plasma after dosing; conditions: dosed: 2-Hydroxy-4-methoxybenzophenone, 8 mg/kg, iv, Female, F344
rat [11] = test: concentration in blood after dosing; negative times count back from the end of exposure; conditions: dosed: methanol, inhalation, duration: 6 hr, male
rat [12] = test: concentration in blood after dosing; conditions: dosed: methanol, male, CDF(F344)/CrlBR
Rat [13] = test: concentration in liver after dosing; conditions: 24 h; dosed: Perfluorooctanoic acid; 80 mg/kg; oral; Female; Harlan Sprague Dawley
Rat [14] = test: concentration in liver after dosing; conditions: 192 h; dosed: Perfluorooctanoic acid; 12 mg/kg; oral; Male; Harlan Sprague Dawley
Rat [15] = test: concentration in liver after dosing; conditions: 3 h; dosed: Fluorotelomer alcohol 8+2; 24 mg/kg; oral; Male; Harlan Sprague Dawley
Rat [16] = test: concentration in plasma after dosing; conditions: dosed: 678-39-7, 40 mg/kg, iv, Male, F344
Rat [17] = test: concentration in brain after dosing; conditions: 24 h; dosed: Perfluorooctanoic acid; 12 mg/kg; oral; Male; Harlan Sprague Dawley
Rat [18] = test: concentration in plasma after dosing; conditions: dosed: 678-39-7, 40 mg/kg, iv, Female, Harlan Sprague-Dawley
Rat [19] = test: concentration in plasma after dosing; conditions: 3 h; dosed: Fluorotelomer alcohol 8+2; 12 mg/kg; oral; Male; Harlan Sprague Dawley
Rat [20] = test: concentration in liver after dosing; conditions: 6 h; dosed: Fluorotelomer alcohol 8+2; 24 mg/kg; oral; Male; Harlan Sprague Dawley
Rat [21] = test: concentration in liver after dosing; conditions: 1 h; dosed: Fluorotelomer alcohol 8+2; 24 mg/kg; oral; Male; Harlan Sprague Dawley
Rat [22] = test: concentration in liver after dosing; conditions: 3 h; dosed: Perfluorooctanoic acid; 80 mg/kg; oral; Female; Harlan Sprague Dawley
Rat [23] = test: concentration in plasma after dosing; conditions: dosed: 678-39-7, 40 mg/kg, iv, Female, Harlan Sprague-Dawley; remark: listed apart in the source
Rat [24] = test: concentration in plasma after dosing; conditions: 2 min; dosed: Nitrite; 20 mg/kg; iv; Male; F344

O=S(=O)([O-])C(F)(F)C(F)(F)C(F)(F)C(F)(F)F.[K+] [Potassium Perfluorobutane Sulfonate]
Conditions	concentration in plasma [ng/mL]
Rat [1], 0.5 h	7030
Rat [1], 9 h	5080
Rat [5], 5 min	1130
Rat [5], 9 h	13200
Rat [7], 0.25 h	15900
Rat [7], 6 h	47.5

Conditions	concentration in brain [ng/g]	concentration in kidney [ng/g]	concentration in plasma [ng/mL]
Rat [2]	–	–	58500
Rat [3]	–	–	5120
Rat [4]	552	–	–
Rat [6]	–	21100	–

COc1ccc(C(=O)c2ccccc2)c(O)c1 [2-Hydroxy-4-methoxybenzophenone]
Conditions	concentration in plasma [ng/mL]
Rat [8], 10 h	27.5
Rat [8], 10 min	52.4
Rat [9], 0.25 h	84.6
Rat [9], 4 h	16.2
Rat [10], 2 h	78.6
Rat [10], 10 min	3030

Conditions	concentration in plasma [ng/mL]
Mouse	148

CO [methanol]
Conditions	concentration in blood [ng/mL]
rat [11], 0.4288 h, 200 ppm, CDF(F344)/CrlBR	2410
rat [11], 0.9278 h, 200 ppm, CDF(F344)/CrlBR	2010
rat [11], 1.006 h, 2000 ppm, Fischer-344	83800
rat [11], 1.926 h, 200 ppm, CDF(F344)/CrlBR	1400
rat [11], 2.976 h, 2000 ppm, Fischer-344	53300
rat [11], 2.996 h, 200 ppm, CDF(F344)/CrlBR	1200
rat [11], 4.511 h, 200 ppm, CDF(F344)/CrlBR	1510
rat [11], 5.974 h, 2000 ppm, Fischer-344	16700
rat [11], 8.995 h, 2000 ppm, Fischer-344	702
rat [11], 11.92 h, 2000 ppm, Fischer-344	702
rat [11], -3.08 h, 2000 ppm, Fischer-344, during exposure	59900
rat [11], -5.151 h, 2000 ppm, Fischer-344, during exposure	24300
rat [11], -5.613 h, 2000 ppm, Fischer-344, during exposure	18900
rat [11], -206 s, 2000 ppm, Fischer-344, during exposure	80600
rat [12], 0.3747 h, 100 mg/kg, iv	90900
rat [12], 0.621 h, 100 mg/kg, iv	80500
rat [12], 1.114 h, 100 mg/kg, iv	70300
rat [12], 1.606 h, 100 mg/kg, iv	61300
rat [12], 2.08 h, 100 mg/kg, iv	60600
rat [12], 3.027 h, 100 mg/kg, iv	39200
rat [12], 4.505 h, 100 mg/kg, iv	26100
rat [12], 6.002 h, 100 mg/kg, iv	12200

200 ppm
Conditions	concentration in blood [ng/mL]
rat [11], -0.07 h, CDF(F344)/CrlBR, during exposure	3510
rat [11], -3.047 h, CDF(F344)/CrlBR, during exposure	3110
rat [11], -5.115 h, CDF(F344)/CrlBR, during exposure	4520
rat [11], -5.615 h, CDF(F344)/CrlBR, during exposure	1400
rat [12], 0 h, inhalation, duration: 6 hr	4780
rat [12], 0.5 h, inhalation, duration: 6 hr	2950
rat [12], 1 h, inhalation, duration: 6 hr	1990
rat [12], 1.5 h, inhalation, duration: 6 hr	3160
rat [12], 2 h, inhalation, duration: 6 hr	2100
rat [12], 3 h, inhalation, duration: 6 hr	949
rat [12], 4.5 h, inhalation, duration: 6 hr	1730
rat [12], 6 h, inhalation, duration: 6 hr	396
rat [12], 8 h, inhalation, duration: 6 hr	704
rat [12], 10 h, inhalation, duration: 6 hr	528

O=C(O)C(F)(F)C(F)(F)C(F)(F)C(F)(F)C(F)(F)C(F)(F)C(F)(F)F [Perfluorooctanoic acid]
Conditions	concentration in brain [ng/g]	concentration in liver [ng/g]	concentration in plasma [ng/mL]
Rat [13]	–	7880	–
Rat [14]	–	51800	–
Rat [15]	–	1430	–
Rat [17]	1210	–	–
Rat [19]	–	–	380
Rat [20]	–	1450	–
Rat [21]	–	676	–
Rat [22]	–	162000	–

Conditions	concentration in plasma [ng/mL]
Rat [16], 0.25 h	276000
Rat [16], 6 h	77700
Rat [16], 48 h	31.9
Rat [18], 1 h	2620
Rat [18], 24 h	86.7
Rat [23], 0.75 h	1830
Rat [23], 12 h	528

O=N[O-] [Nitrite]
Conditions	concentration in plasma [ng/mL]
Rat [24]	15100
